The test system of the experiment is human immortalized podocytes inducibly expressing APOL1 G2. The experiment can be described thus: APOL1 G2 podocyte cell rescue assay (Example B4). Type of experiment: cell-based. The conditions noted are these: Homo sapiens, differentiated human podocytes, doxycycline-induced APOL1 G2, CellTiter-Glo; geometric mean of at least 2 runs; † = single run. In short, it runs like this:
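Differentiated hTERT-immortalized podocytes (clone D10) with doxycycline-inducible C-terminally HiBiT-tagged APOL1 G2, 6,000 cells/well, treated with doxycycline plus 8-point 3-fold compound series (0.4% DMSO) for 95 h at 37 °C. Viability by CellTiter-Glo luminescence; EC50 as geometric mean of ≥2 runs, each in duplicate.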

Data on 10 molecules can be found in US12344610B2, “APOL1 inhibitors and methods of use” (Maze Therapeutics, Inc., priority 2022, dated 2025).

In general, EC50 refers to the concentration that produces a half-maximal response. High values mean lower potency in that assay, low ones higher potency in that assay.

For the molecule `CC1(O)CC(c2ncc(OCCN3CCC4(CC3)C(=O)Nc3ccc(Cl)cc34)cn2)C1` (single isomer, unassigned) [Compound 393, 5-chloro-1′-[2-({2-[(cis) or (trans)-3-hydroxy-3-methylcyclobutyl]pyrimidin-5-yl}oxy)ethyl]-1,2-dihydrospiro[indole-3,4′-piperidin]-2-one], the EC50 turned out to be 23 nM. That is a double-digit nanomolar value.
With `C[C@]1(O)C[C@@H](n2nnc3cc(OCCN4CCC5(CC4)C(=O)Nc4ccc(Cl)cc45)cc(C(F)(F)F)c32)C1` [Compound 434, 5-chloro-1′-[2-({1-[(cis)-3-hydroxy-3-methylcyclobutyl]-7-(trifluoromethyl)-1H-1,2,3-benzotriazol-5-yl}oxy)ethyl]-1,2-dihydrospiro[indole-3,4′-piperidin]-2-one], the half-maximal effective concentration (EC50) was 1.5 nM.
With `C[C@]1(O)C[C@@H](n2c(=O)oc3cc(OCCN4CCC5(CC4)C(=O)Nc4ccc(Cl)cc45)cnc32)C1` [Compound 394, 5-chloro-1′-[2-({2-oxo-3-[(cis)-3-hydroxy-3-methylcyclobutyl]-2H,3H-[1,3]oxazolo[4,5-b]pyridin-6-yl}oxy)ethyl]-1,2-dihydrospiro[indole-3,4′-piperidin]-2-one], a half-maximal response (EC50) required 16.9 nM.
Molecule `C[C@]1(O)C[C@@H](n2cc3cc(OCCN4CCC5(CC4)C(=O)Nc4ccc(Cl)cc45)cc(C(F)(F)F)c3n2)C1` [Compound 427, 5-chloro-1′-[2-({2-[(cis)-3-hydroxy-3-methylcyclobutyl]-7-(trifluoromethyl)-2H-indazol-5-yl}oxy)ethyl]-1,2-dihydrospiro[indole-3,4′-piperidin]-2-one] had an EC50 of 1.95 nM.
Turning to `C[C@]1(O)C[C@@H](n2ncc3cc(OCCN4CCC5(CC4)C(=O)Nc4ccc(Cl)cc45)cc(C(F)(F)F)c32)C1` [Compound 464, 5-chloro-1′-[2-({1-[(cis)-3-hydroxy-3-methylcyclobutyl]-7-(trifluoromethyl)-1H-indazol-5-yl}oxy)ethyl]-1,2-dihydrospiro[indole-3,4′-piperidin]-2-one], the midpoint of the response, the EC50, lay at 0.659 nM.
In the case of `C[C@]1(O)C[C@@H](n2c(=O)ccc3cc(OCCN4CCC5(CC4)C(=O)Nc4ccc(Cl)cc45)cnc32)C1` [Compound 323, 5-chloro-1′-[2-({7-oxo-8-[(cis)-3-hydroxy-3-methylcyclobutyl]-7,8-dihydro-1,8-naphthyridin-3-yl}oxy)ethyl]-1,2-dihydrospiro[indole-3,4′-piperidin]-2-one], it took 2.02 nM to reach a half-maximal effect (EC50).
For the molecule `C[C@]1(O)C[C@@H](N2C(=O)Cc3cc(OCCN4CCC5(CC4)C(=O)Nc4ccc(Cl)cc45)cnc32)C1` [Compound 345, 5-chloro-1′-[2-({2-oxo-1-[(cis)-3-hydroxy-3-methylcyclobutyl]-1H,2H,3H-pyrrolo[2,3-b]pyridin-5-yl}oxy)ethyl]-1,2-dihydrospiro[indole-3,4′-piperidin]-2-one], the EC50 amounted to 15.8 nM.
The same measure for `CC(C)(O)c1ncc(OCCN2CCC3(CC2)C(=O)Nc2ccc(Cl)cc23)cc1C(F)(F)F` [Compound 371, 5-chloro-1′-(2-{[6-(2-hydroxypropan-2-yl)-5-(trifluoromethyl)pyridin-3-yl]oxy}ethyl)-1,2-dihydrospiro[indole-3,4′-piperidin]-2-one]: 1.1 nM; for `C[C@]1(O)C[C@@H](N2C(=O)NCc3cc(OCCN4CCC5(CC4)C(=O)Nc4ccc(Cl)cc45)cnc32)C1` [Compound 356, 5-chloro-1′-[2-({2-oxo-1-[(cis)-3-hydroxy-3-methylcyclobutyl]-1H,2H,3H,4H-pyrido[2,3-d]pyrimidin-6-yl}oxy)ethyl]-1,2-dihydrospiro[indole-3,4′-piperidin]-2-one]: 21.5 nM.
In turn, `C[C@]1(O)C[C@@H](n2cc3cc(OCCN4CCC5(CC4)C(=O)Nc4ccc(C#N)cc45)cc(C(F)(F)F)c3n2)C1` [Compound 428, 2-oxo-1′-[2-({2-[(cis)-3-hydroxy-3-methylcyclobutyl]-7-(trifluoromethyl)-2H-indazol-5-yl}oxy)ethyl]-1,2-dihydrospiro[indole-3,4′-piperidine]-5-carbonitrile] returned an EC50 of 12.2 nM.
